The values that follow come from article PMC4627759, “Identification of Host-Plant Volatiles and Characterization of Two Novel General Odorant-Binding Proteins from the Legume Pod Borer, Maruca vitrata Fabricius (Lepidoptera: Crambidae)” (PLoS ONE, 2015).

One may read the Ki as the equilibrium dissociation constant of an inhibitor or competing ligand from its target. One may read the IC50 as the concentration needed to halve the response being measured.

Assay [1] relates to antennae of Maruca vitrata females. Kind of assay: GC-EAD: antennal response of female moths to floral volatiles. The conditions noted are these: volatiles of V. unguiculata flower buds/flowers. The method, then:
Headspace collections were initially analyzed by an Agilent Technologies 7890A GC with a flame ionization detector (FID) coupled with an electroantennogram detector (Syntech, Hilversum, The Netherlands) followed the procedures as described by with some modifications. The column was kept at 50°C for 1 min, increased to 200°C at a rate of 10°C/min and then increased to 240°C at a rate of 5°C/min, which was maintained for 5 min. The outlet of the GC column was split with a specific Electronic Pressure Control splitter (Agilent) to obtain the requested flow accuracy in a ratio of 1: 3 for the FID and the cut antenna. Volatile compounds eluting from the GC column were led to the mounted antenna through a heated (230°C) transfer line (TC-02, Syntech, Hilversum, the Netherlands). Each antenna was prepared by cutting both distal and basic segments and was immediately mounted on the holder using conductive gel (Spectra® 360; Parker Laboratories, Fairfield, New Jersey, USA). Each sample was tested five times. Each tested antenna was derived from a different female and used only once. Synthetic chemicals used in the experiments were purchased from Sigma Chemical Co., J&K Scientific Ltd., Tokyo Chemical Industry Co., Sinopharm Chemical Reagent Co. and Aladdin Chemistry Co., respectively.

A further assay deals with MvitGOBP2 (Maruca vitrata, UniProt A0A088MJX9). Briefly: Fluorescence competitive binding assay (1-NPN displacement) with recombinant MvitGOBP2. The conditions noted are these: for binding ability to MvitGOBP2 (in words): among the 17 tested compounds. How it is done:
(§1) Fluorescence binding activity was determined as described by previous study. Emission fluorescence spectra were recorded on a Hitachi F-4500 at 25°C in a right angle configuration, with a 1 cm light path quartz cuvette and 5 nm slits for both excitation and emission. The protein was dissolved in 20 mM Tris-HCl buffer, pH 7.4, and ligands were added as 1 mM methanol solutions. To measure the affinity of the fluorescent ligand 1-NPN to MvitGOBP1-2, a 2 μM protein solution in 20 mM Tris-HCl (pH 7.4) was titrated with aliquots of […] ligand in methanol to final concentrations of 2–16 μM. The probe was excited at 337 nm and emission spectra were recorded between 380 and 450 nm. The affinities of the other ligands were measured in competitive binding assays, where a solution of the protein and 1-NPN, both at a concentration of 2 μM, was titrated with 1 mM methanol solutions of each competitor over concentration ranges of 2–24 μM, depending on the ligand. The dissociation constant for 1-NPN and the stoichiometry of binding were obtained by processing the data using Prism software. Dissociation constants of the competitors were calculated from the corresponding IC50 values (concentrations of ligands halving the initial fluorescence value of 1-NPN), using the equation: Ki = [IC50] / (1 + [1-NPN] / K1-NPN), where [1-NPN] is the free concentration of 1-NPN and K1-NPN is the dissociation constant of the complex protein/1-NPN.

A further assay has as its system Maruca vitrata females. Kind of assay: Field trapping experiment with volatile-baited Delta-traps. It counts as in vivo. The conditions noted are these: 100 μl of 100 ng/μl in hexane on rubber septa, one week, six traps, Student's t-test. The method, then:
Field trap experiments were determined as described by Wang et al. Custom-built Delta-traps with sticky inserts and rubber septa purchased from Pherobio Technology Co. Ltd. were used in the field experiments during the moth flight season in 2014. Traps were suspended from iron stakes and placed approximately 15 m apart. Key components of host-plant volatiles were prepared in hexane, and 100 μl solution (100 ng/μl) were added to rubber septa to be used as lures. Hexane was used as blank control and six trap replicates were used in the field experiment. Traps were checked everyday and the number of female moths per trap was determined for one week. Statistical analyses of trap data were used SPSS (SPSS Inc., Chicago, Illinous, U.S.A.), the significance of the differences between tested group and control group was evaluated by Student's t-test at P < 0.05 and P < 0.01.

A further assay concerns the target MvitGOBP1 (Maruca vitrata, UniProt A0A0S1S6H9). Kind of assay: Fluorescence competitive binding assay (1-NPN displacement) with recombinant MvitGOBP1. How it is done: as §1
A further assay deals with M. vitrata females. Further details: method as in earlier work. The settings on record: cited from earlier work.
Where [2] appears, read: dissociation constant calculated from IC50, 1-NPN competition, read-out: MvitGOBP2 Ki.
[3] abbreviates: ligand concentration displacing 50% of fluorescence of MvitGOBP2/1-NPN complex, protein and 1-NPN 2 μM, pH 7.4, 25°C, read-out: MvitGOBP2 IC50.
Setting [4] is: dissociation constant calculated from IC50, 1-NPN competition, read-out: MvitGOBP1 Ki.
Setting [5] is: ligand concentration displacing 50% of fluorescence of MvitGOBP1/1-NPN complex, protein and 1-NPN 2 μM, pH 7.4, 25°C, read-out: MvitGOBP1 IC50.
Where [6] appears, read: '-' = exceeded 50 μM for half-maximal inhibition, read-out: MvitGOBP2 IC50 (class symbol).

“Also recorded” adds a separate entry of the source. Read-outs that look alike come from different tables or passages of the source. Bounds are passed on as bounds.

Sequence of MvitGOBP1 (A0A0S1S6H9 entry or part of it): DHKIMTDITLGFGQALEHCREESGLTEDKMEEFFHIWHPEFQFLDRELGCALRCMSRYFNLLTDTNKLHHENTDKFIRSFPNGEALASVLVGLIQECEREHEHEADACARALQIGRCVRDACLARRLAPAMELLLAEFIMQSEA
Sequence of MvitGOBP2 (A0A088MJX9 entry or part of it): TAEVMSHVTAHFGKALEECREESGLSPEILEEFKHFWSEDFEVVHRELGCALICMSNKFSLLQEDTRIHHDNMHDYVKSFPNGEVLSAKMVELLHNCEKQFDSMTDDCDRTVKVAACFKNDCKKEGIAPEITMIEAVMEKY

Take `CC(=O)c1ccc(C)cc1C` [1-(2,4-Dimethylphenyl)-ethanone]: the “EAD/EAG response of female antennae (in words)” value (from here on “EAD/EAG response”) in assay [1] was “responded”.

Turning to `CCc1ccc(C(C)=O)cc1` [1-(4-ethylphenyl)-ethanone], the “EAD/EAG response” value in assay [1] is “responded; also recorded: highest EAD responses”.

For the compound `CCCCOC(=O)CCC` [Compound 1, Butanoic acid butyl ester], the values for the inhibition constant Ki at MvitGOBP2 (setting [2]) and on MvitGOBP1 (setting [4]) were 29.7 µM and 12.5 µM, respectively. In addition, the concentration for half-maximal inhibition (IC50) on MvitGOBP2 (setting [3]) came to 44.8 µM; on MvitGOBP1 (setting [5]), 16.8 µM. The “female moths caught in traps vs blank lure” value in the assay with Maruca vitrata females is “significant difference compared with the blank lure”. For the same compound, the “EAD/EAG response” value in assay [1] is “responded”.

Regarding `Oc1cccc2[nH]ccc12` [Compound 1H-indol-4-ol], in the assay with M. vitrata females, the “attraction of females in wind tunnel (in words)” value (shortened to “attraction of females”) is reported as “significantly attracted many M. vitrata females”. Also, the “female moths caught in traps vs blank lure” value in the assay on Maruca vitrata females is “significant difference compared with the blank lure”. The “EAD/EAG response” value in assay [1] was “responded”.

On to `C=C(C)[C@H]1CC=C(C)CC1` [Compound 2, Limonene], for which the inhibition constant (Ki) on MvitGOBP2 (setting [2]) is 29.2 µM; on MvitGOBP1 (setting [4]), 13.8 µM. For the same compound, the IC50 was determined as 44.1 µM on MvitGOBP2 (setting [3]) and 18.6 µM on MvitGOBP1 (setting [5]). Further, the “attraction of females” value with M. vitrata females was “significantly attracted many M. vitrata females; also recorded: strong behavioral activity”. Moreover, the “female moths caught in traps vs blank lure” value in the assay with Maruca vitrata females (listed as Limonene) was “most female moths were trapped”; in the assay with Maruca vitrata females (listed as limonene), “significant difference compared with the blank lure; also recorded: highest trapping effect”. Moreover, in assay [1], the “EAD/EAG response” value is on record as “responded”.

Regarding `CCc1cccc(CC)c1` [Compound 3, 1,3-diethylbenzene], the figures for the Ki on MvitGOBP2 (setting [2]) and on MvitGOBP1 (setting [4]) were 22.4 µM and 28.8 µM, respectively. The IC50 at MvitGOBP2 (setting [3]) stood at 33.8 µM; on MvitGOBP1 (setting [5]) it was 38.7 µM.

Take `CCc1ccc(CC)cc1` [Compound 4, 1,4-diethylbenzene]: the inhibition constant (Ki) on MvitGOBP2 (setting [2]) was 27.1 µM; on MvitGOBP1 (setting [4]), 19.2 µM. Also, the 50% inhibitory concentration (IC50) on MvitGOBP2 (setting [3]) was found to be 40.9 µM; at MvitGOBP1 (setting [5]), 25.8 µM.

For the compound `CCc1ccc(C=O)cc1` [Compound 4-ethylbenzaldehyde], the “EAD/EAG response” value in assay [1] is “responded”.

Turning to `CCC(=O)c1ccc(CC)cc1` [Compound 4-ethylpropiophenone], in the assay with Maruca vitrata females, the “female moths caught in traps vs blank lure” value is on record as “significant difference compared with the blank lure”.

Turning to `O=Cc1ccccc1` [Compound 5, Benzaldehyde], the concentration for half-maximal inhibition (IC50) at MvitGOBP2 is greater than 50 µM. At MvitGOBP1, the half-maximal inhibitory concentration (IC50) was 22.4 µM and the Ki was found to be 16.6 µM. In addition, the “EAD/EAG response” value in assay [1] was “responded”.

On to `CC(=O)c1ccccc1` [Compound 6, Acetophenone], for which the inhibitory constant (Ki) is 26.5 µM on MvitGOBP2 (setting [2]) and 21.2 µM at MvitGOBP1 (setting [4]). In addition, the IC50 is 40 µM at MvitGOBP2 (setting [3]) and 28.5 µM at MvitGOBP1 (setting [5]).

Turning to `O=Cc1ccccc1O` [Compound 7, 2-hydroxybenzaldehyde], at MvitGOBP2, the IC50 was found to be 41.9 µM and the Ki was 22.9 µM. Moreover, at MvitGOBP1, the IC50 came to 20.8 µM and the Ki turned out to be 15.5 µM.

Regarding `CCc1ccc(C=O)cc1` [Compound 8, 4-ethylbenzaldehyde], the values for the inhibition constant Ki at MvitGOBP2 (setting [2]) and on MvitGOBP1 (setting [4]) were 33.1 µM and 14.2 µM, respectively. Also, the IC50 at MvitGOBP2 (setting [3]) was determined as 50 µM; at MvitGOBP1 (setting [5]), 19.1 µM.

In the case of `CCCCCCCCOC(=O)CCC` [Compound 9, Butanoic acid octyl ester], the “binding ability to MvitGOBP2 (in words)” value at MvitGOBP2 is given as “very great bind ability”. Moreover, the Ki on MvitGOBP2 (setting [2]) is 8.5 µM; on MvitGOBP1 (setting [4]), 26.8 µM. In addition, the half-maximal inhibitory concentration (IC50) was 12.9 µM at MvitGOBP2 (setting [3]) and 36.1 µM on MvitGOBP1 (setting [5]). The “female moths caught in traps vs blank lure” value with Maruca vitrata females is “significant difference compared with the blank lure”. The results for the “EAD/EAG response” value in assay [1] (listed as Butanoic acid octyl ester) and in assay [1] (listed as butanoic acid octyl ester) were “EAG response was weaker than other plant volatiles” and “responded”, respectively.

Consider `CCc1ccc(C(C)=O)cc1` [Compound 10, 1-(4-ethylphenyl)-ethanone], for which, at MvitGOBP2, the half-inhibitory concentration (IC50) turned out to be 45 µM and the Ki stood at 29.8 µM. Moreover, on MvitGOBP1, the concentration for half-maximal inhibition (IC50) turned out to be 22.9 µM and the inhibition constant (Ki) was found to be 17 µM.

For `CC(C=O)Cc1ccccc1` (centres unmarked) [Compound 11, 2-methyl-3-phenylpropanal], the “binding ability to MvitGOBP2 (in words)” value at MvitGOBP2 was “highest bind ability”. In addition, the inhibition constant (Ki) on MvitGOBP2 (setting [2]) is 3.81 µM; on MvitGOBP1 (setting [4]), 17.8 µM. Also, the IC50 at MvitGOBP2 (setting [3]) was determined as 6.98 µM; on MvitGOBP1 (setting [5]), 23.9 µM. In the assay with M. vitrata females, the “attraction of females” value was “attract significantly M. vitrata females”. The “female moths caught in traps vs blank lure” value in the assay on Maruca vitrata females is “significant difference compared with the blank lure”. The “EAD/EAG response” value in assay [1] is “responded; also recorded: high electrophysiological responses”.

Regarding `CC(=O)c1ccc(C)cc1C` [Compound 12, 1-(2,4-Dimethylphenyl)-ethanone], the half-maximal inhibitory concentration (IC50) at MvitGOBP2 (setting [6]) is greater than 50 µM; on MvitGOBP1 (setting [5]) it was 24.2 µM. Further, on MvitGOBP1 (setting [4]), the Ki is 18 µM.

`CCC(=O)c1ccc(CC)cc1` [Compound 13, 4-ethylpropiophenone]: the values for the Ki on MvitGOBP2 (setting [2]) and on MvitGOBP1 (setting [4]) were 26 µM and 15.2 µM, respectively. For the same compound, the half-inhibitory concentration (IC50) at MvitGOBP2 (setting [3]) was 39.3 µM; at MvitGOBP1 (setting [5]) it was 20.4 µM.

For `CC(=O)c1ccc(O)c(C)c1` [Compound 14, 4-hydroxy-3-methylacetophenone], the results for the Ki at MvitGOBP2 (setting [2]) and at MvitGOBP1 (setting [4]) were 17.1 µM and 18.3 µM, respectively. Also, the IC50 on MvitGOBP2 (setting [3]) stood at 25.8 µM; at MvitGOBP1 (setting [5]), 24.6 µM.

Consider `Oc1cccc2[nH]ccc12` [Compound 15, 1H-indol-4-ol], for which the values for the IC50 on MvitGOBP2 (setting [6]) and at MvitGOBP1 (setting [5]) were greater than 50 µM and 14.6 µM, respectively. Moreover, the Ki at MvitGOBP1 (setting [4]) is 10.9 µM.

For the compound `CC(=O)c1ccc(C(C)=O)cc1` [Compound 16, 1,4-diacetyl benzene], at MvitGOBP2, the IC50 came to 49.6 µM and the inhibition constant Ki turned out to be 32.9 µM. Also, on MvitGOBP1, the IC50 is 30.5 µM and the Ki is 22.7 µM.

Consider `Cc1cc(C)cc(C(C)(C)C)c1` [Compound 17, 1-(1,1-Dimethylethyl)-3,5-dimethylbenzene], for which the concentration for half-maximal inhibition (IC50) at MvitGOBP2 (setting [6]) is greater than 50 µM; at MvitGOBP1 (setting [5]), 22.6 µM. In addition, the inhibition constant (Ki) at MvitGOBP1 (setting [4]) was 16.8 µM.
